Assay results taken from US9133225B2, “Dual targeting anticancer agents” (priority 2013, dated 2015).

Assays:
Bcl-xL = assay: Immunoblotting analysis of Bcl-xL expression; assay type: cell-based; conditions: A549 cells
Experimental: α-TOS is known to disrupt Bcl-xL-Bax interactions, activate Bax, and thus mediate mitochondrial centered apoptotic cell death. Co-immunoprecipitation studies were carried out to determine whether the Pt(IV)-α-TOS conjugates could behave in a similar manner. […] Additional immunoblotting studies were carried to determine the effect of Pt(IV)(α-TOS)(OEt) treatment on transcription. […] Overall Pt(IV)(α-TOS)(OEt) was able to (1) downregulate Bcl-xL expression and (2) inhibit the interaction of Bcl-xL with Bax, a prerequisite for mitochondrial dysfunction. The former is inherent to cisplatin but not α-TOS, and the latter was inherent to α-TOS but not cisplatin.
A549 cells (5×10^5 cells) were incubated with test compound for 48 h at 37° C. Cells were washed with PBS, scraped into SDS-PAGE loading buffer (64 mM Tris-HCl (pH6.8)/9.6% glycerol/2% SDS/5% β-mercaptoethanol/0.01% Bromophenol Blue) and incubated at 95° C. for 10 min. Whole cell lysates were resolved by 4-20% sodium dodecylsulphate polyacylamide gel electrophoresis (SDS-PAGE; 200 V for 1 h) followed by electro transfer to polyvinylidene difluoride membrane, PVDF (350 mA for 1 h). Membranes were blocked in 5% (w/v) non-fat milk in PBST (PBS/0.1% Tween 20) and incubated with the appropriate primary antibodies (Cell Signalling Technology and Santa Cruz). After incubation with horseradish peroxidase-conjugated secondary antibodies (Cell Signalling Technology), immune complexes were detected with the ECL detection reagent (BioRad) and analysed using an Alpha Innotech ChemiImager™ 5500 fitted with a chemiluminescence filter.

[1] = test system: MRC-5 non-tumorigenic lung fibroblast cells; assay: MTT cytotoxicity assay, MRC-5; conditions: read-out: cytotoxicity IC50; MRC-5, lung normal; MTT, 48 h treatment; spread in brackets
Excerpt: (a) Dulbecco's Modified Eagle Medium (DMEM), Dulbecco's phosphate buffered saline (DPBS), fetal bovine serum (FBS) and 0.25% trypsin/EDTA solutions were purchased from Cellgro (Manassas, Va.). Penicillin-streptomycin solutions were purchased from Mediatech (Manassas, Va.). (b) HeLa (CCL-2TM) cells, A549, A2870, A2870/CP70, MCF-7, PC-3, and MRC-5 cells were purchased from American Type Culture Collection (ATCC, Manassas, Va., USA). (c) HCT116 cells were kindly donated by Laura Trudel (MIT). HeLa, A549, MCF-7, and MRC-5 cells were cultured using DMEM supplemented with 10% FBS and 1% penicillin-streptomycin. A2870, A2870/CP70, and PC-3 cells were cultured in RPMI supplemented with 10% FBS and 1% penicillin-streptomycin. HCT116 cells were cultured in McCoy's supplemented with 10% FBS and 1% penicillin-streptomycin. All cell-culture experiments were performed in the aforementioned media in an incubator operating at 37° C. and in the presence of a humidified atmosphere containing 5.0% CO2. Cells were harvested using a 0.25% trypsin/EDTA solution.
The cytotoxicity of the compounds was assessed by means of the MTT assay (MTT=3-(4,5-dimethyl-2-thiazolyl)-2,5-diphenyl-2H-tetrazolium bromide). Typically, on day one, ˜1×10^3 cells were seeded into 96-well plates in 100 μL media per well. The last row of the plate was left empty as a control for background absorption. The cells were allowed to grow for 24 h in the incubator at 37° C. On day two, a series of drug dilutions in growth media were prepared immediately prior to cell treatment. The media in the wells of the 96 plates were replaced with 100 μL of growth media containing appropriate drug concentrations. The cells were treated for 48 h at 37° C. in the incubator. On day four, a stock solution of MTT (5 mg/mL in PBS buffer) was diluted with media so that, when 100 μL of the media was added to each well, 10 μL of MTT stock was applied. The cells were incubated for 2 h and then all the media was replaced with 100 μL of DMSO to dissolve the purple MTT-formazan crystals. The optical density for each well at 550 nm was measured with a microplate reader.

`CC[O][Pt]([NH2])([NH2])([Cl])([Cl])[O]C(=O)CCC(=O)Oc1c(C)c(C)c2c(c1C)CCC(C)(CCCC(C)CCCC(C)CCCC(C)C)O2` (stereo not drawn) [Pt(IV)(α-TOS)(OEt)] was tested, and the Bcl-xL expression (Bcl-xL) was “induced a reduction in Bcl-xL expression” and the IC50 [1] was 5.3 µM.
